Data published in ChEMBL document CHEMBL5338791, “Discovery of Novel 1,3-Diphenylpyrazine Derivatives as Potent S-Phase Kinase-Associated Protein 2 (Skp2) Inhibitors for the Treatment of Cancer” (J Med Chem, 2023).
The source made the active and inactive calls. The calls are words filed in the database; no cut-off is given here.

Key:
PC-3 [1] = experiment: Upregulation of p27 level in human PC-3 cells upto 10 uM by Western blot analysis; type: functional, cell-based; conditions: time 48.0 hrs, TDE = time-dependent effect
PC-3 [2] = experiment: Upregulation of p21 level in human PC-3 cells upto 10 uM by Western blot analysis; type: functional, cell-based; conditions: time 48.0 hrs, TDE = time-dependent effect
MGC-803 [3] = experiment: Induction of cell cycle arrest in human MGC-803 cells assessed as accumulation of cells at G1 phase at 2.5 uM incubated for 48 hrs by flow cytometry (reference value: 54.46 %); type: functional
MGC-803 [4] = experiment: Antitumor activity against human MGC-803 cells assessed as cell growth inhibition incubated for 72 hrs by MTT assay; type: functional, cell-based; conditions: MGC-803, 72 h
[5] = Antitumor activity against human EC1 cells assessed as cell growth inhibition incubated for 72 hrs by MTT assay; type: functional, cell-based; conditions: EC1, 72 h
PC-3 [6] = experiment: Antitumor activity against human PC-3 cells assessed as cell growth inhibition incubated for 72 hrs by MTT assay; type: functional, cell-based; conditions: PC-3, 72 h
ES-2 = experiment: Antitumor activity against human ES2 cells overexpressing Skp2 assessed as cell growth inhibition incubated for 72 hrs by MTT assay; type: functional, cell-based; conditions: ES-2, 72 h
MGC-803 [7] = experiment: Downregulation of Skp2 level in human MGC-803 cells incubated for 48 hrs by Western blot analysis; type: functional, cell-based; conditions: dose <= 10.0 µM
PC-3 [8] = experiment: Upregulation of p21 level in human PC-3 cells at 10 uM incubated upto 48 hrs by Western blot analysis; type: functional, cell-based
MGC-803 [9] = experiment: Upregulation of p27 level in human MGC-803 cells at 10 uM incubated upto 48 hrs by Western blot analysis; type: functional, cell-based
PC-3 [10] = experiment: Inhibition of colony formation in human PC-3 cells at 0.5 to 2 uM incubated for 10 days by crystal violet staining based microscopy; type: functional, cell-based; conditions: dose 0.5-2 µM, time 10.0 day
MGC-803 [11] = experiment: Inhibition of cell migration in human MGC-803 cells incubated for 48 hrs by wound healing assay; type: functional, cell-based; conditions: dose <= 2.0 µM
PC-3 [12] = experiment: Induction of cell cycle arrest in human PC-3 cells assessed as accumulation of cells at G1 phase at 2.5 uM incubated for 48 hrs by flow cytometry (reference value: 57.39 %); type: functional
PC-3 [13] = experiment: Induction of cell cycle arrest in human PC-3 cells assessed as accumulation of cells at S phase at 2.5 uM incubated for 48 hrs by flow cytometry (reference value: 22.44 %); type: functional
PC-3 [14] = experiment: Induction of cell cycle arrest in human PC-3 cells assessed as accumulation of cells at S phase at 5 uM incubated for 48 hrs by flow cytometry (reference value: 22.44 %); type: functional
PC-3 [15] = experiment: Induction of cell cycle arrest in human PC-3 cells assessed as accumulation of cells at G1 phase at 10 uM incubated for 6 hrs by flow cytometry (reference value: 56.81 %); type: functional
PC-3 [16] = experiment: Induction of cell cycle arrest in human PC-3 cells assessed as accumulation of cells at S phase at 10 uM incubated for 36 hrs by flow cytometry (reference value: 19.7 %); type: functional
PC-3 [17] = experiment: Induction of cell cycle arrest in human PC-3 cells assessed as accumulation of cells at G2 phase at 10 uM incubated for 48 hrs by flow cytometry (reference value: 19.34 %); type: functional
MGC-803 [18] = experiment: Induction of cell cycle arrest in human MGC-803 cells assessed as accumulation of cells at G1 phase at 10 uM incubated for 12 hrs by flow cytometry (reference value: 57.09 %); type: functional
PC-3 [19] = experiment: Induction of apoptosis in human PC-3 cells assessed as nuclear condensation incubated for 48 hrs; type: functional, cell-based; conditions: dose <= 10.0 µM
PC-3 [20] = experiment: Induction of apoptosis in human PC-3 cells assessed as early apoptotic cells at 10 uM incubated for 48 hrs by annexin V-FITC/PI staining based flow cytometry (reference value: 0.85 %); type: functional
MGC-803 [21] = experiment: Induction of apoptosis in human MGC-803 cells assessed as viable cells at 5 uM incubated for 48 hrs by annexin V-FITC/PI staining based flow cytometry (reference value: 98 %); type: functional; conditions: read-out: Activity
MGC-803 [22] = experiment: Induction of apoptosis in human MGC-803 cells assessed as viable cells at 10 uM incubated for 48 hrs by annexin V-FITC/PI staining based flow cytometry (reference value: 98 %); type: functional; conditions: read-out: Activity
MGC-803 [23] = experiment: Induction of apoptosis in human MGC-803 cells assessed as necrotic cells at 10 uM incubated for 48 hrs by annexin V-FITC/PI staining based flow cytometry (reference value: 0.89 %); type: functional
PC-3 [24] = experiment: Antitumor activity against human PC-3 cells xenografted in NOD-SCID mouse model assessed as p27 accumulation at 10 to 50 mg/kg, IG administered once every 2 days for 21 days by Western blot analysis; type: functional, organism-based; conditions: dose 10-50 mg/kg, time 21.0 day
[25] = Toxicity in NOD-SCID mouse model xenografted with human PC-3 cells assessed as change in spleen histology at 10 to 50 mg/kg, IG administered once every 2 days for 21 days by H and E staining based analysis; type: organism-based; conditions: in vivo, po, 504 h, dose 10-50 mg/kg, time 21 day
[26] = Toxicity in NOD-SCID mouse model xenografted with human MGC-803 cells assessed as body weight change at 10 to 50 mg/kg, IG administered once every 2 days for 21 days; type: organism-based; conditions: in vivo, po, 504 h, dose 10-50 mg/kg, time 21 day
MGC-803 [27] = experiment: Antitumor activity against human MGC-803 cells xenografted in NOD-SCID mouse model assessed as p27 accumulation at 10 to 50 mg/kg, IG administered once every 2 days for 21 days by Western blot analysis; type: functional, organism-based; conditions: dose 10-50 mg/kg, time 21.0 day
MGC-803 [28] = experiment: Antitumor activity against human MGC-803 cells xenografted in NOD-SCID mouse model assessed as downregulation of ki67 level at 10 to 50 mg/kg, IG administered once every 2 days for 21 days by Western blot analysis; type: functional, organism-based; conditions: dose 10-50 mg/kg, time 21.0 day
MGC-803 [29] = experiment: Antitumor activity against human MGC-803 cells xenografted in NOD-SCID mouse model assessed as increase in apoptosis in tumor tissue at 10 to 50 mg/kg, IG administered once every 2 days for 21 days by TUNEL staining based analysis; type: functional, organism-based; conditions: dose 10-50 mg/kg, time 21.0 day
[30] = Toxicity in NOD-SCID mouse model xenografted with human MGC-803 cells assessed as change in kidney histology at 10 to 50 mg/kg, IG administered once every 2 days for 21 days by H and E staining based analysis; type: organism-based; conditions: in vivo, po, 504 h, dose 10-50 mg/kg, time 21 day
[31] = Metabolic stability in human liver microsome assessed as half life at 20 umol/L preincubated for 5 mins followed by NADPH addition measured upto 60 mins by LC-MS/MS analysis; type: ADME; conditions: liver microsomes, dose 20 µmol/L, time < 65 min
[32] = Metabolic stability in mouse liver microsome assessed as half life at 20 umol/L preincubated for 5 mins followed by NADPH addition measured upto 60 mins by LC-MS/MS analysis; type: ADME; conditions: liver microsomes, dose 20 µmol/L, time < 65 min
[33] = AUClast in tumor of NOD-SCID mouse model xenografted with human PC-3 cells at 25 mg/kg, IG measured upto 48 hrs by LC-MS/MS analysis; type: ADME, organism-based, Neoplasm; conditions: in vivo, po
[34] = Clearance in plasma of NOD-SCID mouse model xenografted with human PC-3 cells at 25 mg/kg, IG measured upto 48 hrs by LC-MS/MS analysis; type: ADME, organism-based; conditions: po
[35] = MRTlast in plasma of NOD-SCID mouse model xenografted with human PC-3 cells at 25 mg/kg, IG measured upto 48 hrs by LC-MS/MS analysis; type: ADME, organism-based; conditions: po

Question: Which results are given for `O=C(CCl)NC1CCN(c2cnc(-c3ccccc3)c(-c3ccccc3)n2)CC1`?
Answer: Activity (PC-3 [1]): Tde; Activity (PC-3 [2]): Tde; Activity (MGC-803 [3]): 49.77%; IC50 (MGC-803 [4]): 7 µM; IC50 [5]: 7 µM; IC50 (PC-3 [6]): 4.8 µM; IC50 (ES-2): 3.6 µM; Activity (MGC-803 [7]): Dose-Dependent Effect; Activity (PC-3 [8]): Active; Activity (MGC-803 [9]): Active; inhibition (PC-3 [10]): Active; inhibition (MGC-803 [11]): Dose-Dependent Effect; Activity (PC-3 [12]): 48.73%; Activity (PC-3 [13]): 29.96%; Activity (PC-3 [14]): 38.7%; Activity (PC-3 [15]): 46.91%; Activity (PC-3 [16]): 45.23%; Activity (PC-3 [17]): 16.14%; Activity (MGC-803 [18]): 46.55%; Activity (PC-3 [19]): Dose-Dependent Effect; Activity (PC-3 [20]): 0.2%; viability at 5 µM (MGC-803 [21]): 82.9%; viability at 10 µM (MGC-803 [22]): 66.9%; Activity (MGC-803 [23]): 4.73%; Activity (PC-3 [24]): Active; Activity [25]: Non-Toxic; Activity [26]: Non-Toxic; Activity (MGC-803 [27]): Active; Activity (MGC-803 [28]): Active; Activity (MGC-803 [29]): Active; Activity [30]: Non-Toxic; half-life at 20 µM [31]: 1.1 h; half-life at 20 µM [32]: 0.255 h; AUClast [33]: 2443.9 ng·h/g; CL/F [34]: 118 mL/min/kg; MRT last at 48 h [35]: 13.4 h
